Test results published in PMC9221108 (2022).
Blank lines part the entries; values can stand above or below the molecule they belong to.

Legend:
[1] = test system: 5AG4-FAM (DNA, G4) AAAAAGGGTGGGTGGGTGGGTTTTT; assay: FAM fluorescence quenching on hemin addition; conditions: K+ (varied); 10 mM Tris-HCl pH 8.4; K+-folded parallel G4
[2] = test system: 5AG4 (DNA, G4) AAAAAGGGTGGGTGGGTGGGTTTTT; assay: SGI fluorescence quenching on hemin addition; conditions: K+ (varied); 10 mM Tris-HCl pH 8.4, 0.2% Tween 20, 0.3x SGI; K+-folded parallel G4
[3] = test system: OTAapt31 (DNA, aptamer) GATCGGGTGTGGGTGGCGTAAAGGGAGCATC; assay: SGI fluorescence quenching; conditions: 6.25 mM Ca2+; 10 mM Tris-HCl pH 8.4, 0.3x SGI, 20 nM aptamer; tested at 62.5 nM
[4] = test system: OTAapt31 (DNA, aptamer) GATCGGGTGTGGGTGGCGTAAAGGGAGCATC; assay: SGI fluorescence enhancement; conditions: 6.25 mM Ca2+; 10 mM Tris-HCl pH 8.4, 0.3x SGI, 20 nM aptamer; no OTA; terminal duplex stem
[5] = test system: OTAapt31 (DNA, aptamer) GATCGGGTGTGGGTGGCGTAAAGGGAGCATC; assay: SGI fluorescence quenching on CV addition; conditions: 6.25 mM Ca2+; 10 mM Tris-HCl pH 8.4, 0.3x SGI; OTA-folded antiparallel G4
[6] = test system: OTAapt31-FAM (DNA, aptamer) GATCGGGTGTGGGTGGCGTAAAGGGAGCATC; assay: FAM fluorescence quenching on CV addition; conditions: 6.25 mM Ca2+; 10 mM Tris-HCl pH 8.4; OTA-folded antiparallel G4
[7] = test system: G31C (DNA, aptamer) GGATCGGGTGTGGGTGGCGTAAAGGGAGCATCC; assay: fluorescence quenching titration; conditions: 6.25 mM Ca2+; 10 mM Tris-HCl pH 8.4, 0.2% Tween 20, 0.3x SGI, 20 nM aptamer, room temperature; apparent
[8] = test system: OTAapt31-FAM (DNA, aptamer) GATCGGGTGTGGGTGGCGTAAAGGGAGCATC; assay: FAM fluorescence quenching titration; conditions: 6.25 mM Ca2+; 10 mM Tris-HCl pH 8.4, room temperature; apparent
[9] = test system: OTAapt36 (DNA, aptamer) GATCGGGTGTGGGTGGCGTAAAGGGAGCATCGGACA; assay: fluorescence quenching titration; conditions: 6.25 mM Ca2+; 10 mM Tris-HCl pH 8.4, 0.2% Tween 20, 0.3x SGI, 20 nM aptamer, room temperature; apparent
[10] = test system: OTAapt31 (DNA, aptamer) GATCGGGTGTGGGTGGCGTAAAGGGAGCATC; assay: fluorescence quenching titration; conditions: 6.25 mM Ca2+; 10 mM Tris-HCl pH 8.4, 0.2% Tween 20, 0.3x SGI, 20 nM aptamer, room temperature; apparent

binding [4]: yes
Structure (SMILES): CCCN(CCCN(C)C)c1cc(C=C2Sc3ccccc3N2C)c2ccccc2[n+]1-c1ccccc1

IC50 [7]: 17.8 nM | IC50 [8]: 19.8 nM | IC50 [9]: 55.7 nM | IC50 [10]: 20.6 nM
Structure (SMILES): C[C@@H]1Cc2c(Cl)cc(C(=O)N[C@@H](Cc3ccccc3)C(=O)O)c(O)c2C(=O)O1

binding [3]: no
Structure (SMILES): C[C@@H]1Cc2ccc(C(=O)N[C@@H](Cc3ccccc3)C(=O)O)c(O)c2C(=O)O1

binding [3]: no
Structure (SMILES): C[C@H]1CCCC(=O)CCC/C=C/c2cc(O)cc(O)c2C(=O)O1

Further lines, the molecule ahead of its results:

Structure (SMILES): C=CC1=C(C)C2=Cc3c(C=C)c(C)c4[n]3[Fe]([Cl])[n]3c(c(C)c(CCC(=O)O)c3=CC3=NC(=C4)C(C)=C3CCC(=O)O)=CC1=N2
binding [1]: yes | binding [2]: yes

Structure (SMILES): CCCC[C@@H](C)[C@@H](OC(=O)C[C@@H](CC(=O)O)C(=O)O)[C@H](C[C@@H](C)C[C@H](O)CCCC[C@@H](O)C[C@H](O)[C@H](C)N)OC(=O)C[C@@H](CC(=O)O)C(=O)O
binding [3]: no

Structure (SMILES): CN(C)c1ccc(C(=C2C=CC(=[N+](C)C)C=C2)c2ccc(N(C)C)cc2)cc1
binding [5]: yes | binding [6]: yes

Structure (SMILES): O=C1C=C2C(=CCOC2O)O1 (stereo not shown)
binding [3]: no
